US6495525B1, “VLA-4 inhibitor: oMePUPA-V” (Biogen, Inc., priority 1998, dated 2002)

Tests used:
VLA-4 = VLA-4 (Homo sapiens, UniProt P05556+P13612); assay: CS1 Cell Adhesion Assay, Jurkat cells to CS1/BSA conjugate; type: cell-based; set-up: endogenous in cells; host or cells: Jurkat (human T cell line); conditions: in the presence of Mn+2
Procedure: The peptide NH2-cysteine-tyrosine-CS-1 was synthesized and coupled to BSA-SMCC (SMCC is a heterobifunctional crosslinker which reacts with free amino groups on BSA and the sole cysteine of the synthetic peptide) at a CS1/BSA ratio of 10:1. Wells were coated overnight with 100 μL of conjugate diluted to a final concentration of 1 ug/ml. The next day the wells were blocked with BSA in PBS for one hour and then washed three times.
The human T cell line, Jurkat, was labeled with 2 μM BCECF-AM, a fluorescent dye (2′, 7′, bis-(2-carboxyethyl)-5 and -6) carboxy fluorescein acetoxymethyl ester (Molecular Probes Inc., Eugene, Oregon; catalog #B-1150) that is internalized and deesterified thus trapping the dye within live cells. Jurkat cells (1×10^5 cells/well) in buffer containing 1 mM Mn^+2 were added to the coated plates in the presence of three-fold serial dilutions of inhibitor. Each concentration was assayed in duplicate. After 30 minutes at room temperature, the plates were inverted and washed three times or until no cells were adherent to control wells coated with BSA alone. CS1-adherent cells were quantitated in a Cytofluor fluorescent platereader using an excitation wavelength of 485 nm and an emission wavelength of 530 nm.
Cells adhered to CS1/BSA in the absence of compound served as the 0% inhibition control whereas cells adhering to BSA alone served as the 100% inhibition control. IC50's were calculated using Deltagraph software, version 5.

[1] = Bulk / drug substance stability (HPLC); type: physicochemical
Procedure: At four weeks, one or two degradation peaks became detectable at 40° C. and 50° C., but the level of each impurity peak was still less than 0.02%.

VLA-4, sequence (P13612 34-1032): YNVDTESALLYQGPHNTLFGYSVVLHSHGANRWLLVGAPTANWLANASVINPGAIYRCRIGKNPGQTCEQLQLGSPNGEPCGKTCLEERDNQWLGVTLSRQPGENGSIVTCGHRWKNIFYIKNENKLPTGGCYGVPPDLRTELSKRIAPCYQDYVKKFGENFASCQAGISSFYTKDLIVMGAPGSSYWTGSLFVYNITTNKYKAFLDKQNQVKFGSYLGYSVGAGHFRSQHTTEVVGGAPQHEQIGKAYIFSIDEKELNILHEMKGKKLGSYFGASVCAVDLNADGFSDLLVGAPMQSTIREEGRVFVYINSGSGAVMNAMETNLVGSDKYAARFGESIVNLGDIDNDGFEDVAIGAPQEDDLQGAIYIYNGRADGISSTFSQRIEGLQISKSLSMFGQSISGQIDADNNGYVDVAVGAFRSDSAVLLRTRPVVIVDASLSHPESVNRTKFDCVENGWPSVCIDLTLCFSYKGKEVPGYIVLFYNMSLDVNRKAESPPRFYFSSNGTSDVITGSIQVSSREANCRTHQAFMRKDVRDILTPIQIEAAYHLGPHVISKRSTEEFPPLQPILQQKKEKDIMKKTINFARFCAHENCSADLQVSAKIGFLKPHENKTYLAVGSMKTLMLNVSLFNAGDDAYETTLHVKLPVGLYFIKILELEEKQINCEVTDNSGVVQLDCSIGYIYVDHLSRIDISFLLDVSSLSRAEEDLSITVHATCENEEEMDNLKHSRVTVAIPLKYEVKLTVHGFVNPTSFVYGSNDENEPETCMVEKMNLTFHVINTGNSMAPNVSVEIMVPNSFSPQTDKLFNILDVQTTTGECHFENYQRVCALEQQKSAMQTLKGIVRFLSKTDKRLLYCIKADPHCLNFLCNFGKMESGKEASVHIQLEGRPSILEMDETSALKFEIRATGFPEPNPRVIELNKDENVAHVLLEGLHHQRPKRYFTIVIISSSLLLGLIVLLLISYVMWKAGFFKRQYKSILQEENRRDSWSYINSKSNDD
VLA-4, sequence (P05556 21-798): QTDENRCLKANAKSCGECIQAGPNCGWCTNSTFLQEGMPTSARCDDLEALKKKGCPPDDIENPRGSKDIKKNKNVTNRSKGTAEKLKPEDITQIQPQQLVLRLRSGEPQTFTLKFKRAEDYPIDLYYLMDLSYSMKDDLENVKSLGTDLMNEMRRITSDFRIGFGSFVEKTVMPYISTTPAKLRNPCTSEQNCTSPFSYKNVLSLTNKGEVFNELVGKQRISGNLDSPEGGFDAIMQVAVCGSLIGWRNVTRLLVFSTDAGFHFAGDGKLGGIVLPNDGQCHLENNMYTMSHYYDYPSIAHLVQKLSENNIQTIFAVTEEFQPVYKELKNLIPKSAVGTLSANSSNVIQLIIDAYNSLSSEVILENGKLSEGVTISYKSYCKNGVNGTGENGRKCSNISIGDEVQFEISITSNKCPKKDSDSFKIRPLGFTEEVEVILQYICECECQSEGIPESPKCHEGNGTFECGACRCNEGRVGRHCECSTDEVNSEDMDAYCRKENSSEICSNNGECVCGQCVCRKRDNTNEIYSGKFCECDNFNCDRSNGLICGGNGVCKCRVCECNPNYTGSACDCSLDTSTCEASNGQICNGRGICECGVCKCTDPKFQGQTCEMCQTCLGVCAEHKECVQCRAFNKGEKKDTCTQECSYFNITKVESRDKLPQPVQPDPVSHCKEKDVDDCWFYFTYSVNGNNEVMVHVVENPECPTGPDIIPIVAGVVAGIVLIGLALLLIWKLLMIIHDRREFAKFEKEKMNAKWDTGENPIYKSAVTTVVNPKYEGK

| SMILES | blocking of Jurkat cell adhesion to CS1 (in words) (VLA-4) | level of each impurity (degradation) peak ([1]; four weeks, 40° C. and 50° C.) | degradation on storage (in words) ([1]; two weeks, 40° C. closed vial, 50° C. closed vial, 25° C., RH 60%, 40° C., RH 75%) |
| --- | --- | --- | --- |
| O=C(O)CN(CCN(CC(=O)O)CC(=O)O)CC(=O)O [EDTA, reference compound] | blocked completely | – | – |
| Cc1ccccc1NC(=O)Nc1ccc(CC(=O)N2CCC[C@@H]2C(=O)NC(C)CC(=O)O)cc1 (stereo partly drawn) [oMePUPA-V] | – | less than 0.02% | No degradation |
